According to US5210193A, “Piperazine derivatives” (American Cyanamid Company, priority 1990, dated 1993):
Values after ≈ are worked out from the molar mass of the structure shown. Where a name gives a salt, the structure may show the parent alone. Read-outs that look alike come from different tables or passages of the source.

Legend:
Assay in all cases: in vitro antibacterial MIC, agar plate dilution
Type in all cases: cell-based
[1] = tested on: Pseudomonas aeruginosa K 84-16; settings: Pseudomonas aeruginosa, K8416, 18 h, 35° C., read-out: MIC
Outline: (§1)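 Agar plate dilution on Mueller-Hinton agar, inoculum approximately 10^4 CFU per organism applied with a Steers replicator. MIC (mcg/ml) is the lowest compound concentration inhibiting visible growth after 18 hours at 35° C.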

[2] = tested on: Proteus rettgeri IO 83-21; settings: Providencia rettgeri, IO8321, 18 h, 35° C., read-out: MIC
Outline: as §1

Citrobacter div. K 82-24 = settings: 35° C.
Outline: as §1

[3] = tested on: Streptococcus faecalis CMC 83-120; settings: Enterococcus faecalis, CMC83120, 18 h, 35° C., read-out: MIC
Outline: as §1

[4] = tested on: Klebsiella pneumoniae MOR 84-24; settings: Klebsiella pneumoniae, MOR8424, 18 h, 35° C., read-out: MIC
Outline: as §1

Escherichia coli LL 311 = settings: 35° C.
Outline: as §1

[5] = tested on: Escherichia coli ATCC 25922; settings: 35° C.
Outline: as §1

[6] = tested on: Enterobacter cloacae K 84-10; settings: 35° C.
Outline: as §1

[7] = tested on: Enterobacter cloacae MOR 84-30; settings: Enterobacter cloacae, MOR8430, 18 h, 35° C., read-out: MIC
Outline: as §1

[8] = tested on: Staphylococcus aureus VGH 84-47; settings: 35° C.
Outline: as §1

[9] = tested on: Streptococcus faecalis UCI 85-30; settings: Enterococcus faecalis, UCI8530, 18 h, 35° C., read-out: MIC
Outline: as §1

[10] = tested on: Morganella morganii CMC 84-38; settings: 35° C.
Outline: as §1

[11] = tested on: Serratia marcescens MOR 84-41; settings: Serratia marcescens, MOR8441, 18 h, 35° C., read-out: MIC
Outline: as §1

[12] = tested on: Escherichia coli MOR 84-20; settings: Escherichia coli, MOR8420, 18 h, 35° C., read-out: MIC
Outline: as §1

[13] = tested on: Staphylococcus aureus VGH 84-45; settings: 35° C.
Outline: as §1

[14] = tested on: Morganella morganii VHG 84-12; settings: Morganella morganii, VHG8412, 18 h, Morganella morganii VHG 84-12 (VGH 84-12 for Example 131), 35° C., read-out: MIC
Outline: as §1

[15] = tested on: Escherichia coli CMC 84-11; settings: 18 hours, 35° C.
Outline: as §1

[16] = tested on: Serratia marcescens VGH 84-30; settings: 35° C.
Outline: as §1

[17] = tested on: Pseudomonas aeruginosa VGH 84-4; settings: 35° C.
Outline: as §1

[18] = tested on: Proteus rettgeri CMC 84-41; settings: 18 hours, 35° C.
Outline: as §1

[19] = tested on: Serratia marcescens CMC 83-74; settings: Serratia marcescens, CMC8374, 18 h, 35° C., read-out: MIC
Outline: as §1

[20] = tested on: Escherichia coli VGH 84-19; settings: Escherichia coli, VGH8419, 18 h, 35° C., read-out: MIC
Outline: as §1

[21] = tested on: Enterobacter cloacae VGH 84-39; settings: Enterobacter cloacae, VGH8439, 18 h, 35° C., read-out: MIC
Outline: as §1

[22] = tested on: Providencia stuarti CMC 83-3; settings: Providencia, CMC833, 18 h, 35° C., read-out: MIC
Outline: as §1

[23] = tested on: Klebsiella pneumoniae IO 83-5; settings: Klebsiella pneumoniae, IO835, 18 h, 35° C., read-out: MIC
Outline: as §1

[24] = tested on: Staphylococcus aureus CMC 83-131; settings: Staphylococcus aureus, CMC83131, 18 h, 35° C., read-out: MIC
Outline: as §1

[25] = tested on: Klebsiella pneumoniae CMC 84-31; settings: Klebsiella pneumoniae, CMC8431, 18 h, 35° C., read-out: MIC
Outline: as §1

[26] = tested on: Staphylococcus aureus K 82-26; settings: 35° C.
Outline: as §1

[27] = tested on: Morganella morganii MOR 84-45; settings: Morganella morganii, MOR8445, 18 h, 35° C., read-out: MIC
Outline: as §1

[28] = tested on: Serratia marcescens K 84-18; settings: 18 hours, 35° C.
Outline: as §1

[29] = tested on: Staphylococcus aureus ATTC 29213; settings: 35° C.
Outline: as §1

[30] = tested on: Pseudomonas aeruginosa LL-1244; settings: 35° C.
Outline: as §1

[31] = tested on: Escherichia coli CMC 84-50; settings: Escherichia coli, CMC8450, 18 h, 35° C., read-out: MIC
Outline: as §1

[32] = tested on: Pseudomonas aeruginosa CMC 83-20; settings: 35° C.
Outline: as §1

[33] = tested on: Streptococcus faecalis UCI 85-19; settings: 35° C.
Outline: as §1

[34] = tested on: Streptococcus faecalis VGH 84-69; settings: Enterococcus faecalis, VGH8469, 18 h, 35° C., read-out: MIC
Outline: as §1

[35] = tested on: Staphylococcus aureus Smith; settings: 35° C.
Outline: as §1

[36] = tested on: Streptococcus faecalis VGH 84-65; settings: 35° C.
Outline: as §1

[37] = tested on: Serratia marcescens IO 83-63; settings: IO8363, 18 hours, 35° C.
Outline: as §1

[38] = tested on: Pseudomonas aeruginosa VGH 84-3; settings: Pseudomonas aeruginosa, VGH843, 18 h, 35° C., read-out: MIC
Outline: as §1

[39] = tested on: Morganella morganii CMC 84-37; settings: Morganella morganii, CMC8437, 18 h, 35° C., read-out: MIC
Outline: as §1

[40] = Escherichia coli, ATCC25922, 18 h, read-out: MIC

For `O=C(O)c1cn(C2CC2)c2cc(N3CCNC(C4CC4)C3)c(F)cc2c1=O` (centres unmarked) [Example 96, 7-(3-Cyclopropyl-1-piperazinyl) -1-cyclopropyl-6-fluoro-1,4-dihydro-4-oxo-3-quinolinecarboxylic acid], the MIC [1] was 2 µg/mL (≈ 5.38 µM), the MIC [2] was 0.12 µg/mL (≈ 0.323 µM) and the MIC (Citrobacter div. K 82-24; 18 hours) was 0.008 µg/mL (≈ 0.0215 µM). For the same compound, the MIC [3] was 1 µg/mL (≈ 2.69 µM), the MIC [4] was 0.03 µg/mL (≈ 0.0808 µM) and the MIC (Escherichia coli LL 311; 18 hours) was 0.03 µg/mL (≈ 0.0808 µM). It also gave an MIC [5, 40] of 0.015 µg/mL (≈ 0.0404 µM), an MIC ([6]; Enterobacter cloacae, K8410, 18 h, read-out: MIC) of 0.015 µg/mL (≈ 0.0404 µM) and an MIC [7] of 0.25 µg/mL (≈ 0.673 µM). The MIC ([8]; 18 hours) was 0.06 µg/mL (≈ 0.162 µM), the MIC [9] was 2 µg/mL (≈ 5.38 µM) and the MIC ([10]; 18 hours) was 0.3 µg/mL (≈ 0.808 µM). The MIC [11] was 0.06 µg/mL (≈ 0.162 µM), the MIC [12] was 0.008 µg/mL (≈ 0.0215 µM) and the MIC ([13]; Staphylococcus aureus, VGH8445, 18 h, read-out: MIC) was 0.06 µg/mL (≈ 0.162 µM). For the same compound, the MIC [14] was 0.12 µg/mL (≈ 0.323 µM), the MIC [15] was > 0.015 µg/mL and the MIC ([16]; 18 hours) was 1 µg/mL (≈ 2.69 µM). The MIC ([17]; Pseudomonas aeruginosa, VGH844, 18 h, read-out: MIC) was 1 µg/mL (≈ 2.69 µM), the MIC [18] was 0.03 µg/mL (≈ 0.0808 µM) and the MIC [19] was 4 µg/mL (≈ 10.8 µM). The MIC [20] was 0.008 µg/mL (≈ 0.0215 µM), the MIC [21] was 0.015 µg/mL (≈ 0.0404 µM) and the MIC [22] was 2 µg/mL (≈ 5.38 µM). It also gave an MIC [23] of 0.03 µg/mL (≈ 0.0808 µM), an MIC [24] of 0.25 µg/mL (≈ 0.673 µM) and an MIC [25] of 0.015 µg/mL (≈ 0.0404 µM). The MIC ([26]; 18 hours) was 0.25 µg/mL (≈ 0.673 µM), the MIC [27] was 0.008 µg/mL (≈ 0.0215 µM) and the MIC [28] was > 0.015 µg/mL. The MIC ([29]; 18 hours) was 0.25 µg/mL (≈ 0.673 µM), the MIC ([30]; 18 hours) was 1 µg/mL (≈ 2.69 µM) and the MIC [31] was 0.015 µg/mL (≈ 0.0404 µM). It also gave an MIC ([32]; 18 hours) of 1 µg/mL (≈ 2.69 µM), an MIC ([33]; 18 hours) of 0.5 µg/mL (≈ 1.35 µM) and an MIC [34] of 1 µg/mL (≈ 2.69 µM). For the same compound, the MIC ([35]; Staphylococcus aureus, 18 h, read-out: MIC) was 0.06 µg/mL (≈ 0.162 µM), the MIC ([36]; Enterococcus faecalis, VGH8465, 18 h, read-out: MIC) was 0.5 µg/mL (≈ 1.35 µM) and the MIC [37] was 0.25 µg/mL (≈ 0.673 µM). For the same compound, the MIC [38] was 4 µg/mL (≈ 10.8 µM) and the MIC [39] was 0.03 µg/mL (≈ 0.0808 µM).
With `O=C(O)c1cn(C2CC2)c2cc(N3CCNC(c4ccsc4)C3)c(F)cc2c1=O` (centres unmarked) [Example 98, 1-Cyclopropyl-6-fluoro-1,4-dihydro-4-oxo-7-[3-(3-thienyl)-1-piperazinyl]-3-quinolinecarboxylic acid, monohydrochloride] the MIC [1] was 4 µg/mL, the MIC [2] was 0.5 µg/mL and the MIC (Citrobacter div. K 82-24; Citrobacter, DIV.K8224, 18 h, read-out: MIC) was 0.12 µg/mL. The MIC [3] was 1 µg/mL, the MIC [4] was 0.25 µg/mL and the MIC (Escherichia coli LL 311; Escherichia coli, LL311, 18 h, read-out: MIC) was 0.03 µg/mL. The MIC ([5]; 18 hours, monohydrochloride) was 0.12 µg/mL, the MIC [5, 40] was 0.06 µg/mL and the MIC ([6]; 18 hours, monohydrochloride) was 0.06 µg/mL. It also gave an MIC [7] of 1 µg/mL, an MIC ([8]; Staphylococcus aureus, VGH8447, 18 h, read-out: MIC) of 0.12 µg/mL and an MIC [9] of 1 µg/mL. For the same compound, the MIC ([10]; Morganella morganii, CMC8438, 18 h, read-out: MIC) was 0.12 µg/mL, the MIC [11] was 0.25 µg/mL and the MIC [12] was 0.12 µg/mL. The MIC ([13]; 18 hours, monohydrochloride) was 0.03 µg/mL, the MIC [14] was 0.25 µg/mL and the MIC ([15]; monohydrochloride) was 0.03 µg/mL. For the same compound, the MIC ([16]; Serratia marcescens, VGH8430, 18 h, read-out: MIC) was 4 µg/mL, the MIC ([17]; 18 hours, monohydrochloride) was 2 µg/mL and the MIC ([18]; monohydrochloride) was 0.12 µg/mL. For the same compound, the MIC [19] was 8 µg/mL, the MIC [20] was 0.12 µg/mL and the MIC [21] was 0.12 µg/mL. The MIC [22] was 8 µg/mL, the MIC [23] was 0.25 µg/mL and the MIC [25] was 0.12 µg/mL. It also gave an MIC ([26]; Staphylococcus aureus, K8226, 18 h, read-out: MIC) of 0.12 µg/mL, an MIC [27] of 0.12 µg/mL and an MIC ([28]; monohydrochloride) of 0.25 µg/mL. It also gave an MIC ([29]; 18 hours, monohydrochloride) of 0.12 µg/mL, an MIC ([29]; Staphylococcus aureus, ATTC29213, 18 h, read-out: MIC) of 0.06 µg/mL and an MIC ([30]; Pseudomonas aeruginosa, LL1244, 18 h, read-out: MIC) of 2 µg/mL. The MIC [31] was 0.12 µg/mL, the MIC ([32]; Pseudomonas aeruginosa, CMC8320, 18 h, read-out: MIC) was 4 µg/mL and the MIC ([33]; Enterococcus faecalis, UCI8519, 18 h, read-out: MIC) was 0.5 µg/mL. The MIC [34] was 0.5 µg/mL, the MIC ([35]; 18 hours, monohydrochloride) was 0.03 µg/mL and the MIC ([36]; 18 hours, monohydrochloride) was 0.5 µg/mL. The MIC [37] was 1 µg/mL, the MIC [38] was 16 µg/mL and the MIC [39] was 0.06 µg/mL.
